Assays:
[1] = target: T1, FSHR (Homo sapiens, UniProt P23945); assay: EC50 of cyclic AMP production in CHO FSHR cells + EC20 FSH (HTRF); assay type: cell-based; conditions: Cho-FSHR-LUC-1-1-43 cells; for Emax: 1 h, read-out: EC50 of cAMP production (% effect); for Emax / EC50 of cAMP production (% effect): + EC20 FSH, % effect in brackets; for EC50: + EC20 FSH (0.265 pM), 200 μM IBMX, 1 h at 37° C., read-out: EC50 of cAMP production
T1 construct: expressed in transfected cells; host or cells: CHO (Cho-FSHR-LUC-1-1-43)
T1 sequence (P23945 18-695): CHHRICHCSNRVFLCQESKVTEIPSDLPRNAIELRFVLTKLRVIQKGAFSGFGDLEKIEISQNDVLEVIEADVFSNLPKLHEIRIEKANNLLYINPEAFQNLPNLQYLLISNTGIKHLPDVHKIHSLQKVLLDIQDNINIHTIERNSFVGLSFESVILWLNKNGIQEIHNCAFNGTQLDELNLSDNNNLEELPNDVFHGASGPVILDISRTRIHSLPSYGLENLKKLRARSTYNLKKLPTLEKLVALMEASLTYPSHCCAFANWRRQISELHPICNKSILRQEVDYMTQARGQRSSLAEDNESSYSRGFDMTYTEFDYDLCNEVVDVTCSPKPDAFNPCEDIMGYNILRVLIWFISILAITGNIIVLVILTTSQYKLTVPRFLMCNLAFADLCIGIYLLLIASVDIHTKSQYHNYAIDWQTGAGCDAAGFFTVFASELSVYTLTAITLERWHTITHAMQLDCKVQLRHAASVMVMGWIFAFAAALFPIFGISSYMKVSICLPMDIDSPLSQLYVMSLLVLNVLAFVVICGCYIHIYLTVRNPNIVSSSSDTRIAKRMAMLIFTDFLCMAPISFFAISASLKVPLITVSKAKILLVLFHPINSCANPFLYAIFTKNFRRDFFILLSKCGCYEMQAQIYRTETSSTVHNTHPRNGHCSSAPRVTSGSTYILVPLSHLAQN
Method: EC50 of Cyclic AMP Production in CHO FSHR Cells+EC20 FSH
2500 Cho-FSHR-LUC-1-1-43 cells were plated per well in 5 μL of phenol red free DMEM/F12+1% FBS. Cells were plated in 384 well, solid white low volume plates (Greiner 784075) by Multidrop. Cells were assayed by adding […] of 2×EC20 FSH/IBMX in DMEM/F12+0.1% BSA) by Multidrop to 2 μL of test compound stamped in 384 well plates (compounds are diluted 1:50). The final FSH concentration was 0.265 pM, and the final IBMX concentration was 200 μM. The compound plate map was as follows: Column 1: 2 μL of DMSO; Column 2: 2 μL of DMSO; Columns 3-12 and 13-24: 2 μL of test compound, diluted 1:4 in 100% DMSO, or 2 μL of FSH, diluted 1:4 in DMEM/F12+0.1% BSA. The starting concentration for FSH was 50 nM (final concentration was 0.5 nM). Furthermore, Column 23 contained 2 μL of EC100 FSH reference (100×) (diluted in DMEM/F12+0.1% BSA) at a final concentration of 0.5 nM, and Column 24 contained 2 μL of 1 mM AS707664/2 reference compound 2. 5 μL of compound+EC20 FSH mixture were transferred to cell plates (1:2 dilution into 5 μL of cell media) The plates were incubated at 37° C. for 1 h. 10 μL of mixed HTRF (CisBio #62AM4PEC) reagents were added per well and incubated at room temperature for 1 h. The plates were read on Envision using the cAMP HTRF—low volume 384 well protocol. The readout was the calculated fluorescence ratio (665 nm/620 nm).

[2] = Intrinsic clearance (Clint) in human liver microsomes; assay type: in vitro ADME; conditions: 0.5 mg/mL protein, NADPH, up to 30 min, first value of human/rat; for microsomal CLint at 0.8 μM: human, liver microsomes, pH 7.4, human liver microsomes; for Clint (human): human liver microsomes
Method: (§1) Intrinsic Clearance (Clint) Assay Protocol:
(§2) A Tecan Genesis workstation (RSP 150/8) was used for to perform the microsomal incubations. Analysis was carried out using a Waters ACQUITY UPLC system coupled to an ABSciex API3000 mass spectrometer. Data analysis was performed using Assay Explorer (Symyx).
(§3) 0.1 M potassium phosphate buffer pH 7.4 containing 1 mM MgCl2 15 mM NADPH in phosphate buffer 4.4 mg protein/mL liver microsomes in phosphate buffer acetonitrile 20% DMSO in water
(§4) Each experiment consists of 12 test and 2 reference compounds. The reference compounds are incubated as a cocktail. Dilution of test compounds was done in 2 steps from a 10 mM DMSO stock solution. First 4 μL stock solution was added to 196 μL of 20% DMSO in potassium phosphate buffer pH 7.4. In a second step 10 μL of the first dilution were added to […] potassium phosphate buffer and 100 μL internal standard solution to a final concentration of 0.8 μM. 100 μL of the final compound dilution were aliquoted into a 96 deep well plate. 12.5 μL liver microsomes were added to each well (0.5 mg/mL final protein concentration) and the samples preincubated for 5 min at 37° C. and 800 rpm agitation.
(§5) After the preincubation, 250 μL cold acetonitrile were added to the 0 min samples to prevent a reaction. Following this, 12.5 μL NADPH solution were added to all wells to start the incubation, with the exception of the 0 min and 30 min controls without cofactor, where the NADPH was substituted for phosphate buffer.
(§6) The incubations were stopped after 5, 10, 20 and 30 min by adding 250 μL cold acetonitrile to the individual wells.
(§7) The quenched samples were then centrifuged at 4000 g for 1 h at 4° C. 100 μL of the supernatant were transferred into 96 well plates for analysis.
(§8) The metabolic stability of each compound was determined by measurement of the change in LC-MS/MS peak area over time. Assay Explorer software was used to automatically calculate the slope k of the decline. The intrinsic clearance (Clint) of each compound was then calculated according to the formula:
(§9) Clint (μL/min/mg protein)=k1000/protein concentration.

[3] = Intrinsic clearance (Clint) in rat liver microsomes; assay type: in vitro ADME; conditions: 0.5 mg/mL protein, NADPH, up to 30 min, second value of human/rat; for microsomal CLint at 0.8 μM: rat, liver microsomes, pH 7.4, rat liver microsomes; for Clint (rat): rat liver microsomes
Method: as §1, §2, §3, §4, §5, §6, §7, §8, §9

| Emax [1] [%] | EC50 [1] [nM] | microsomal CLint at 0.8 μM [2] [µL/min/mg] | microsomal CLint at 0.8 μM [3] [µL/min/mg] | EC50 of cAMP production (% effect) [1] | Clint (human) [2] [μL/min/mg protein] | Clint (rat) [3] [μL/min/mg protein] | EC50 of cAMP production (% effect) ([1]; 60 min) | Molecule |
| --- | --- | --- | --- | --- | --- | --- | --- | --- |
| 97 | 1.3 | – | – | – | – | – | – | [2H]c1c([2H])c([2H])c(C#Cc2ccc([C@@H]3S[C@H](CC(=O)NC([2H])([2H])C([2H])([2H])c4ccc(OC([2H])([2H])[2H])c(OC)c4)C(=O)N3c3cccc(C(N)=O)c3)cc2)c([2H])c1[2H] [Compound 13, 3-((2S,5R)-4-oxo-5-(2-oxo-2-((1,1,2,2-d4-2-(3-ethoxy-4-methox-d3-yphenyl)ethyl)amino)ethyl)-2-(4-((phenyl-d5)ethynyl)phenyl)thiazolidin-3-yl)benzamide] |
| 103 | 113 | 351 | 241 | – | – | – | – | [2H]c1c([2H])c([2H])c(C#Cc2c([2H])c([2H])c([C@H]3N(c4cccc(C(N)=O)c4)C(=O)[C@@H](CC(=O)NC([2H])([2H])C([2H])([2H])c4ccc(OC([2H])([2H])[2H])c(OC([2H])([2H])[2H])c4)[S@@+]3[O-])c([2H])c2[2H])c([2H])c1[2H] (single isomer, unassigned) [Compound 21] |
| 99 | 0.87 | 67 | 31 | – | – | – | – | [2H]C([2H])(NC(=O)C[C@H]1S[C@@H](c2ccc(C#Cc3ccccc3)cc2)N(c2cccc(C(N)=O)c2)C1=O)C([2H])([2H])c1ccc(O)c(OC)c1 (single isomer, unassigned) [Compound 1] |
| 97 | 1.9 | 106 | 24 | – | – | – | – | [2H]C([2H])(NC(=O)C[C@H]1S[C@@H](c2ccc(C#Cc3ccccc3)cc2)N(c2cccc(C(N)=O)c2)C1=O)C([2H])([2H])c1ccc(OC)c(OC)c1 [Compound 2, 3-((2S,5R)-4-oxo-5-(2-oxo-2-((1,1,2,2-d4-2-(3,4-dimethoxyphenyl)ethyl)amino)ethyl)-2-(4-(phenylethynyl)phenyl)thiazolidin-3-yl)benzamide] |
| 98 | 0.3 | 182 | 120 | – | – | – | – | CCOc1cc(CCNC(=O)C[C@H]2S[C@@H](c3ccc(C#Cc4ccccc4)cc3)N(c3cccc(C(N)=O)c3)C2=O)ccc1OC [Reference compound, reference compound] |
| – | 0.6 | – | – | (99) % | – | – | – | 3-((2S,5R)-4-oxo-5-(2-oxo-2-((1,1,2,2-d4-2-(3-ethoxy-4-methoxy-d3-phenyl)ethyl)amino)ethyl)-2-(2,3,5,6-d4-4-(phenylethynyl)phenyl)thiazolidin-3-yl)benzamide [Compound 15] |
| – | 2 | – | – | – | 492 | 95 | (99) % | [2H]C([2H])(NC(=O)C[C@H]1S[C@@H](c2ccc(C#Cc3ccccc3)cc2)N(c2cccc(C(N)=O)c2)C1=O)C([2H])([2H])c1ccc(OC)c(OCC)c1 (single isomer, unassigned) [Compound 14] |
| – | 1.7 | – | – | (99) % | 188 | 54 | – | 3-((2S,5R)-5-(2-((3-ethoxy-4-methoxyphenethyl)amino)-2-oxoethyl)-4-oxo-2-(4-((phenyl-d5)ethynyl)phenyl)thiazolidin-3-yl)benzamide [Compound 8] |
| 99 | 220 | – | – | – | – | – | – | [2H]c1c([2H])c([2H])c(C#Cc2ccc([C@@H]3S[C@H](CC(=O)NCCc4ccc(O)c(O)c4)C(=O)N3c3cccc(C(N)=O)c3)cc2)c([2H])c1[2H] [Compound 12, 3-((2S,5R)-5-(2-((3,4-dihydroxyphenethyl)amino)-2-oxoethyl)-4-oxo-2-(4-((2,3,4,5,6-phenyl-d5)ethynyl)phenyl)thiazolidin-3-yl)benzamide] |
| 97 | 0.3 | 181 | 31 | – | – | – | – | [2H]c1c([2H])c([2H])c(C#Cc2ccc([C@@H]3S[C@H](CC(=O)NC([2H])([2H])C([2H])([2H])c4ccc(OC)c(OCC)c4)C(=O)N3c3cccc(C(N)=O)c3)cc2)c([2H])c1[2H] (single isomer, unassigned) [Compound 9] |
| 99 | 335 | – | – | – | – | – | – | [2H]c1c([2H])c([2H])c(C#Cc2ccc([C@@H]3S[C@H](CC(=O)NC([2H])([2H])C([2H])([2H])c4ccc(O)c(OC)c4)C(=O)N3c3cccc(C(N)=O)c3)cc2)c([2H])c1[2H] (single isomer, unassigned) [Compound 11] |
| 98 | 0.3 | 161 | 23 | – | – | – | – | [2H]c1c([2H])c([2H])c(C#Cc2ccc([C@@H]3S[C@H](CC(=O)NC([2H])([2H])C([2H])([2H])c4ccc(OC([2H])([2H])[2H])c(OCC)c4)C(=O)N3c3cccc(C(N)=O)c3)cc2)c([2H])c1[2H] (single isomer, unassigned) [Compound 10] |
| 100 | 0.7 | – | – | – | – | – | – | [2H]c1c([2H])c([C@@H]2S[C@H](CC(=O)NC([2H])([2H])C([2H])([2H])c3ccc(OC([2H])([2H])[2H])c(OCC)c3)C(=O)N2c2cccc(C(N)=O)c2)c([2H])c([2H])c1C#Cc1ccccc1 (single isomer, unassigned) [Compound 16] |
| 100 | 0.9 | – | – | – | – | – | – | [2H]c1c([2H])c([C@@H]2S[C@H](CC(=O)NC([2H])([2H])C([2H])([2H])c3ccc(OC([2H])([2H])[2H])c(OC([2H])([2H])[2H])c3)C(=O)N2c2cccc(C(N)=O)c2)c([2H])c([2H])c1C#Cc1ccccc1 [Compound 17, 3-((2S,5R)-4-oxo-5-(2-oxo-2-((1,1,2,2-d4-2-(3,4-dimethoxy-d6-phenyl)ethyl)amino)ethyl)-2-(2,3,5,6-d4-4-(phenylethynyl)phenyl-d5)thiazolidin-3-yl)benzamide] |
